Experimental data taken from PubChem BioAssay (NCI).
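1) Cells in 96-well plates. 2) Compound, 48 h, 5 concentrations. 3) Linear interpolation between surrounding doses. 4) Unreached endpoint = highest concentration. TGI: total growth inhibition.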

Columns and labels:
Experiment in all cases: growth of human tumour cells (NCI), 48 h
SF-295 CNS = system: SF-295 CNS
A498 renal = system: A498 renal
TK-10 renal = system: TK-10 renal
HS 578T breast = system: HS 578T breast
UACC-257 melanoma = system: UACC-257 melanoma
SK-MEL-2 melanoma = system: SK-MEL-2 melanoma
T-47D breast = system: T-47D breast
K-562 leukemia = system: K-562 leukemia
HCC-2998 colon = system: HCC-2998 colon
SW-620 colon = system: SW-620 colon
CCRF-CEM leukemia = system: CCRF-CEM leukemia
PC-3 prostate = system: PC-3 prostate
ACHN renal = system: ACHN renal
786-0 renal = system: 786-0 renal
SF-268 CNS = system: SF-268 CNS
UO-31 renal = system: UO-31 renal
LOX IMVI melanoma = system: LOX IMVI melanoma
SF-539 CNS = system: SF-539 CNS
HL-60(TB) leukemia = system: HL-60(TB) leukemia
SR leukemia = system: SR leukemia

| SMILES | TGI (SF-295 CNS) | TGI (A498 renal) | TGI (TK-10 renal) | TGI (HS 578T breast) | TGI (UACC-257 melanoma) | TGI (SK-MEL-2 melanoma) | TGI (T-47D breast) | TGI (K-562 leukemia) | TGI (HCC-2998 colon) | TGI (SW-620 colon) | TGI (CCRF-CEM leukemia) | TGI (PC-3 prostate) | TGI (ACHN renal) | TGI (786-0 renal) | TGI (SF-268 CNS) | TGI (UO-31 renal) | TGI (LOX IMVI melanoma) | TGI (SF-539 CNS) | TGI (HL-60(TB) leukemia) | TGI (SR leukemia) |
| --- | --- | --- | --- | --- | --- | --- | --- | --- | --- | --- | --- | --- | --- | --- | --- | --- | --- | --- | --- | --- |
| CC12CCC(CC1=O)C2(C)CCC(N)=O (stereo unspecified) | > 100 µM | > 100 µM | > 100 µM | > 100 µM | > 100 µM | > 100 µM | > 100 µM | > 100 µM | > 100 µM | > 100 µM | > 100 µM | > 100 µM | > 100 µM | > 100 µM | > 100 µM | > 100 µM | – | – | – | – |
| CCN(CC)CCCNc1nc(=O)[nH]c(C)c1C(=O)Nc1cccc2cc3ccccc3cc12 | > 100 µM | – | > 100 µM | – | > 100 µM | > 100 µM | > 100 µM | > 100 µM | > 100 µM | > 100 µM | > 100 µM | > 100 µM | > 100 µM | > 100 µM | – | > 100 µM | > 100 µM | > 100 µM | > 100 µM | – |
| CCOC(=O)C(=[N+]=[N-])C(=O)C1(C(=O)OCC)CCN(C(=O)c2ccccc2)C1=O (stereo unspecified) | > 100 µM | > 100 µM | > 100 µM | > 100 µM | > 100 µM | > 100 µM | > 100 µM | – | – | – | > 100 µM | > 100 µM | > 100 µM | > 100 µM | > 100 µM | > 100 µM | > 100 µM | > 100 µM | > 100 µM | – |
| O=C(/C=C/c1ccccc1)CCN1CCN(CCC(=O)/C=C/c2ccccc2)CC1 | 31.2 µM | 33.3 µM | 30 µM | 37.2 µM | 24 µM | 37.5 µM | 31.2 µM | > 100 µM | 30.4 µM | 17.4 µM | 28.1 µM | 34 µM | 29.5 µM | 18.9 µM | 29.2 µM | 30.8 µM | 5.88 µM | 28.8 µM | > 100 µM | – |
| Nn1c(NNC(=O)C(=O)Nc2cc(Cl)c(Cl)cc2Cl)n[nH]c1=S | > 100 µM | > 100 µM | > 100 µM | – | > 100 µM | – | – | > 100 µM | > 100 µM | > 100 µM | > 100 µM | – | > 100 µM | > 100 µM | > 100 µM | > 100 µM | > 100 µM | > 100 µM | – | – |
| O=C(/C=C(\O)c1ccccc1)C(=O)NNc1ccc([N+](=O)[O-])cc1[N+](=O)[O-] | 29.8 µM | 70.4 µM | 49 µM | – | 99.8 µM | > 100 µM | 48.5 µM | 95.1 µM | 30 µM | 34 µM | 43.5 µM | 44.9 µM | 66.5 µM | 25.9 µM | 37.8 µM | 27.5 µM | 64.3 µM | 33.5 µM | – | 43.6 µM |
| O=C(CSc1nnc(-c2ccc(N=Cc3ccc(Cl)cc3)cc2)o1)Nc1ccc(Cl)cc1Cl | 68.1 µM | > 100 µM | > 100 µM | – | 71.1 µM | 47.3 µM | – | > 100 µM | > 100 µM | > 100 µM | > 100 µM | – | > 100 µM | 51.8 µM | 64.9 µM | 98.7 µM | – | 51.1 µM | > 100 µM | – |
| Cc1c(/C=N/NC(=O)c2cc(Br)cc(Br)c2O)c(=O)n(-c2ccccc2)n1C | > 100 µM | > 100 µM | > 100 µM | – | > 100 µM | > 100 µM | – | > 100 µM | > 100 µM | > 100 µM | > 100 µM | – | > 100 µM | > 100 µM | > 100 µM | > 100 µM | > 100 µM | > 100 µM | 5.97 µM | – |
| CC1=C(C(=O)O)N2C(=O)[C@@H](NC(=O)C(c3ccc(O)cc3)N3CSC(=S)N(C(C)C)C3)C2SC1 (stereo partly specified) | > 100 µM | > 100 µM | > 100 µM | – | > 100 µM | > 100 µM | – | > 100 µM | – | – | > 100 µM | – | > 100 µM | > 100 µM | > 100 µM | > 100 µM | > 100 µM | > 100 µM | > 100 µM | – |
| N#CCc1nc2ccccc2c(=O)[nH]1 | > 100 µM | – | > 100 µM | – | > 100 µM | > 100 µM | > 100 µM | – | > 100 µM | > 100 µM | – | > 100 µM | > 100 µM | > 100 µM | – | > 100 µM | > 100 µM | > 100 µM | > 100 µM | – |
| O=S(=O)(O)c1ccc(O)c2ncc(Cl)cc12 | > 100 µM | > 100 µM | – | – | > 100 µM | > 100 µM | > 100 µM | > 100 µM | > 100 µM | > 100 µM | > 100 µM | > 100 µM | > 100 µM | > 100 µM | – | > 100 µM | > 100 µM | > 100 µM | – | > 100 µM |
| NC(=O)N/N=C1\CCCCc2ccccc21 | – | – | > 10 µM | – | > 10 µM | > 10 µM | > 10 µM | > 10 µM | > 10 µM | > 10 µM | > 10 µM | > 10 µM | > 10 µM | > 10 µM | > 10 µM | > 10 µM | – | – | – | > 10 µM |
| COc1ccc(/C=C2\NC(=S)N(CN3CCCCC3)C2=O)cc1 | > 100 µM | > 100 µM | > 100 µM | 42 µM | – | > 100 µM | – | > 100 µM | – | > 100 µM | > 100 µM | > 100 µM | > 100 µM | > 100 µM | 50.4 µM | > 100 µM | 93.3 µM | – | – | > 100 µM |
| [N-]=[N+]=Nc1c(C=O)c(=O)n2c3c(cccc13)CCC2 | > 76.6 µM | 28.8 µM | 10.1 µM | 57.3 µM | 10 µM | – | 15.5 µM | 13 µM | 33.6 µM | 2.87 µM | 6.44 µM | 27.2 µM | 11.5 µM | 8.83 µM | 35.4 µM | 6.39 µM | 25.4 µM | 36.1 µM | > 100 µM | – |
